Laboratory results reported in US20090325270A1, “USE OF 2-HYDROXY-5-OXOPROLINE IN CONJUNCTION WITH ALGAE” (priority 2008, published 2009).

Test system: pale-green mutant Nannochloropsis
Experiment: Growth of algae cultures treated with 2-hydroxy-5-oxoproline (Example One, FIG. 3)
Type: cell-based
From the text: At step 130, the pale-green mutant Nannochloropsis may be cultivated in an aqueous environment having an effective amount of 2-hydroxy-5-oxoproline. The effective amount of 2-hydroxy-5-oxoproline may increase the growth rate of the pale-green mutant Nannochloropsis.
1. Light intensity was 600 micro-Einsteins.
2. Temperature was held constant at 25 C.
3. Cultures were inoculated to the same extent (as determined by optical density at […], O.D. 750).
4. The bicarb controls were used because the AB1 chemical, which is the 2-hydroxy-5-oxoproline compound, was dissolved in a bicarbonate buffer. This control was to make sure that differences in growth were not due to the presence of bicarbonate. The bicarb controls contain the same concentration of bicarbonate as the AB1 flasks.
5. The cultures were grown on urea as the nitrogen-source.
The bicarb controls were inoculated with 10 mls of 1.3 M bicarbonate solution (pH 9.5). The AB-1 treated cultures had approximately 0.1 g of 2-hydroxy-5-oxoproline added with the algal inoculum. No treat 2 had approximately 50% more cells inoculated as no treat 1, bicarb 1 and 2 and the AB-1 cultures. […] The difference in slope between the AB-1 cultures and the no-treat 1 and bicarb controls was approximately 50%-60%. Therefore, by feeding 2-hydroxy-5-oxoproline to pale-green mutant Nannochloropsis, a greater growth rate could be achieved, which would allow high cell density cultures to be produced quicker, so the advantages of the pale-green phenotype over the wild-type become apparent.

SMILES: O=C1CC[C@@](O)(C(=O)O)N1 [AB-1, 2-hydroxy-5-oxoproline]
- difference in slope (growth) between the AB-1 cultures and the no-treat 1 and bicarb controls (approximately 0.1 g 2-hydroxy-5-oxoproline added with inoculum to 800 mls media, approximately 300 hours, constant illumination 600 micro-Einsteins, 25 C, urea as nitrogen-source): 50%-60%
- growth compared with no treat 2 (approximately 50% more cells inoculated) (approximately 0.1 g 2-hydroxy-5-oxoproline in 800 mls media, approximately 300 hours): grew as if they had been inoculated with more cells than had actually been added
- faster growth than culture without 2-hydroxy-5-oxoproline (as measured by absorbance at 750 nm, effective amount of 2-hydroxy-5-oxoproline): fifty to sixty
